The source of these data is publication PMC8540642, “Antineoplastic Activity of Rhus trilobata Nutt. (Anacardiaceae) against Ovarian Cancer and Identification of Active Metabolites in This Pathology” (Plants, 2021).

Holding throughout (experiment): MTT cell viability, dose-response curves 24 h
One experiment has as its system SKOV-3 cells. It is filed as cell-based, human. As to conditions: for IC50: read-out: IC50 (half-maximal inhibitory concentration), SKOV-3. The method, then: (§1) Cultures (2 × 10^4 cells/well) were seeded with 200 μL of supplemented medium (Sigma®) in 96-well plates (Corning®, Corning, NY, USA) and incubated for 24 h. Cell treatments were 5-200 μg/mL of samples/controls for 24 h. At the end of the treatments, we added MTT (5 mg/mL, Sigma®) for 4 h of incubation, and optical density was measured at λ = 590 nm in a VariosKan® Flash (Thermo-Scientific®, Waltham, MA, USA). The half-maximal inhibitory concentration (IC50) was determined.

In a further experiment the test system is BEAS-2B cells. Format: cell-based. The method, then:
as §1

The test system of the next experiment is CACO-2 cells. It is filed as cell-based. As to conditions: for IC50: read-out: IC50 (half-maximal inhibitory concentration), CACO-2. The method, then:
as §1

A further experiment concerns CHO-K1 cells. Format: cell-based. The note with it: for IC50: read-out: IC50 (half-maximal inhibitory concentration), CHO-K1. On the procedure:
as §1

The next experiment deals with OVCAR-3 cells. It is filed as cell-based. The note with it: for IC50: read-out: IC50 (half-maximal inhibitory concentration), OVCAR-3. On the procedure:
as §1

[1] abbreviates: Homo sapiens, SK-OV-3, MTT, 24 h.
Where [2] appears, read: Homo sapiens, SK-OV-3, MTT, 24 h, value in brackets.
Setting [3] is: Homo sapiens, BEAS-2B, MTT, read-out: IC50 (half-maximal inhibitory concentration), BEAS-2B.
Where [4] appears, read: Homo sapiens, BEAS-2B, MTT, value in brackets, read-out: IC50 (half-maximal inhibitory concentration), BEAS-2B.
The mark [5] stands for this setting: Homo sapiens, Caco-2, MTT, 24 h.
The mark [6] stands for this setting: Homo sapiens, Caco-2, MTT, 24 h, value in brackets.
[7] abbreviates: Cricetulus griseus, CHO-K1, 24 h, MTT, 24 h.
Where [8] appears, read: Cricetulus griseus, CHO-K1, 24 h, MTT, 24 h, value in brackets.
Setting [9] is: Homo sapiens, OVCAR-3, MTT, 24 h.
Setting [10] is: Homo sapiens, OVCAR-3, MTT, 24 h, value in brackets.

Several values for one entry are separate records, joined by “and”; a condition that tells them apart may be missing. Equal entries are not always repeated. Where two headings read alike, the source gives them in different places.

Take `O=c1c(O)c(-c2ccc(O)c(O)c2)oc2cc(O)cc(O)c12` [Compound 9, quercetin]: the IC50 is above 200 µg/mL with SKOV-3 cells (setting [1]); above 662 µM with SKOV-3 cells (setting [2]); 189 µg/mL in the experiment with BEAS-2B cells (setting [3]); 625 µM in the experiment on BEAS-2B cells (setting [4]); 150 µg/mL with CACO-2 cells (setting [5]); 496 µM in the experiment with CACO-2 cells (setting [6]). Also, the IC50 in the experiment with CHO-K1 cells (setting [7]) was found to be 127 µg/mL; in the experiment on CHO-K1 cells (setting [8]), 420 µM; in the experiment with OVCAR-3 cells (setting [9]), 200 µg/mL; with OVCAR-3 cells (setting [10]) it was 662 µM.

Turning to `O=c1c(O)c(-c2ccc(O)c(O)c2)oc2cc(O)ccc12` [Compound 16, fisetin], the IC50 in the experiment on SKOV-3 cells (setting [1]) stood at 200 µg/mL; in the experiment with SKOV-3 cells (setting [2]) it was 699 µM; with BEAS-2B cells (setting [3]) it was 50 µg/mL; in the experiment on BEAS-2B cells (setting [4]), 175 µM; in the experiment with CACO-2 cells (setting [5]), 100 µg/mL; with CACO-2 cells (setting [6]), 349 µM. Also, the IC50 in the experiment on CHO-K1 cells (setting [7]) is 46 µg/mL; in the experiment on CHO-K1 cells (setting [8]), 161 µM; with OVCAR-3 cells (setting [9]), 200 µg/mL; in the experiment on OVCAR-3 cells (setting [10]) it was 699 µM.

Regarding myricitrin [Compound 6], in the experiment with SKOV-3 cells (MTT, 24 h), the “IC50 (half-maximal inhibitory concentration), SKOV-3” value was 197 µg/mL. Also, the IC50 is 424 µM in the experiment with SKOV-3 cells (MTT, 24 h, value in brackets); 344 µM in the experiment on BEAS-2B cells (read-out: IC50 (half-maximal inhibitory concentration), BEAS-2B, MTT, value in brackets); above 431 µM in the experiment with CACO-2 cells (MTT, 24 h, value in brackets); 202 µM in the experiment on CHO-K1 cells (MTT, 24 h, value in brackets); 431 µM in the experiment on OVCAR-3 cells (MTT, 24 h, value in brackets). The “IC50 (half-maximal inhibitory concentration), BEAS-2B” value with BEAS-2B cells (MTT) was found to be 160 µg/mL. Moreover, the “IC50 (half-maximal inhibitory concentration), CACO-2” value in the experiment with CACO-2 cells (MTT, 24 h) is above 200 µg/mL. Also, the “IC50 (half-maximal inhibitory concentration), CHO-K1” value in the experiment on CHO-K1 cells (MTT, 24 h) was found to be 94 µg/mL. Moreover, the “IC50 (half-maximal inhibitory concentration), OVCAR-3” value in the experiment with OVCAR-3 cells (MTT, 24 h) was determined as 200 µg/mL.

Regarding `COC(=O)c1cc(O)c(O)c(O)c1` [Compound 2, methyl 3,4,5-trihydroxybenzoate], the IC50 is above 200 µg/mL in the experiment on SKOV-3 cells (setting [1]); above 1090 µM in the experiment on SKOV-3 cells (setting [2]); 200 µg/mL in the experiment with BEAS-2B cells (setting [3]); 1090 µM in the experiment on BEAS-2B cells (setting [4]); 100 µg/mL with CACO-2 cells (setting [5]); 543 µM in the experiment on CACO-2 cells (setting [6]). The IC50 is 130 µg/mL in the experiment with CHO-K1 cells (setting [7]), 706 µM with CHO-K1 cells (setting [8]), above 200 µg/mL in the experiment on OVCAR-3 cells (setting [9]) and above 1090 µM in the experiment with OVCAR-3 cells (setting [10]).

For `C[C@@H]1O[C@@H](Oc2c(-c3ccc(O)c(O)c3)oc3cc(O)cc(O)c3c2=O)[C@H](O)[C@H](O)[C@H]1O` [Compound 12, quercitrin], the IC50 in the experiment with SKOV-3 cells (Homo sapiens, SK-OV-3, 24 h) was > 200 µg/mL and > 446 µM; in the experiment with BEAS-2B cells (Homo sapiens, BEAS-2B, read-out: IC50 (half-maximal inhibitory concentration), BEAS-2B), > 200 µg/mL and > 446 µM; with CACO-2 cells (Homo sapiens, Caco-2, 24 h), 179 µg/mL and 399 µM; in the experiment on CHO-K1 cells (Cricetulus griseus, CHO-K1, 24 h), > 200 µg/mL and > 446 µM; in the experiment with OVCAR-3 cells (Homo sapiens, OVCAR-3, 24 h), > 200 µg/mL and > 446 µM.
